Assay [1] has as its system MRC-5 normal human lung fibroblasts. As to the kind of experiment: MTT cell viability assay, normal lung fibroblasts. The assay is classed as cell-based. The conditions noted are these: MRC5, MRC-5, 72 h. The method, then:
(§1) Human cell lines were obtained from the American Type Culture Collection (ATCC, Manassas, VA, USA). Normal lung MRC-5 fibroblasts (ATCC® CCL-171™), SK-MES-1 lung cancer cells (ATCC® HTB-58™), and J82 bladder carcinoma cells (ATCC® HTB-1™) were grown as monolayers in Eagle’s minimum essential medium (MEM) with Earle’s salts, 2 mM L-glutamine, and 1.5 g/L sodium bicarbonate. Gastric epithelial AGS cells (ATCC® CRL-1739™) were grown as monolayers in Ham’s F-12 medium containing 1 mM L-glutamine and 1.5 g/L sodium bicarbonate. Promyelocytic leukemia HL-60 (ATCC® CCL-240™), colorectal adenocarcinoma HCT-15 (ATCC® CCL-225™), metastatic colorectal COLO205 (ATCC® CCL-222™), and breast cancer AU565 (ATCC® CRL-2351™, ER^−-HER2/neu^+) cells were grown in suspension in an RPMI-1640 medium containing 1 mM sodium pyruvate and 2.0 g/L sodium bicarbonate. Human breast cancer MCF-7 (ATCC® HTB-22™, ER^+-HER2/neu^−) and MDA-MB-231 (ATCC® HTB-26™, ER^−-HER2/neu^−) cells were grown as monolayers in DMEM medium. All media were supplemented with 10% heat-inactivated fetal bovine serum (HI-FBS), 100 IU/mL penicillin G, and 100 µg/mL streptomycin. Cells were maintained at 37 °C in a humidified incubator with 5% CO2.
(§2) MRC-5, SK-MES-1, J82, and AGS cells were seeded at a density of 5 × 10^4 cells/mL in 96-well plates. COLO205, HCT-15, MCF-7, MDA-MB-231, and AU565 cells were seeded at 1 × 10^5 cells/mL, while HL-60 cells were plated at 3 × 10^5 cells/mL. A volume of 100 µL of the cell suspension was added to each well. After 24 h, the compounds were added in increasing concentrations (ranging from 0 to 100 µM), and cells were incubated for 24, 48, or 72 h. The compounds were dissolved in DMSO and diluted in complete medium to a final concentration of 0.5% DMSO. Cells treated with 0.5% DMSO in complete medium were used as viability controls (100%). Etoposide (98% purity, Sigma-Aldrich, St. Louis, MO, USA) was used as the reference compound. Each concentration was tested in quadruplicate, and each experiment was performed twice using independent cell preparations. At the end of the incubation period, cell viability was determined using the MTT reduction assay. The results were transformed into percentages relative to controls, and IC50 values were obtained graphically from the dose–response curves. Results are presented as IC50 values ± standard deviation (SD).

In the next assay the test system is AGS cells. As to the kind of experiment: MTT cell viability assay, gastric adenocarcinoma. Type of assay: cell-based. The conditions noted are these: Homo sapiens, 72 h. The method, then: as §1, §2
On the technique in general: Formazan colour is commonly taken as a measure of viable cells.

The test system of another assay is J82 cells. As to the kind of experiment: MTT cell viability assay, bladder carcinoma. Type of assay: cell-based. To be noted: Homo sapiens, J82, 72 h. The method, then: as §1, §2
Another assay concerns HL-60 cells. The assay is described as follows: MTT cell viability assay, leukemia. Type of assay: cell-based. The conditions noted are these: Homo sapiens, HL-60, 72 h. The method, then:
as §1, §2

In the next assay the test system is AU565 cells. As to the kind of experiment: MTT cell viability assay, mammary carcinoma. Type of assay: cell-based, human. To be noted: for IC50: Homo sapiens. The method, then: as §1, §2
The subject of the next assay is COLO205 cells. As to the kind of experiment: Annexin V/propidium iodide double staining, flow cytometry. Type of assay: cell-based, human. To be noted: 24 h. The method, then: (§3) The type of cell death induced by the BA-C4-TPP^+Br^− was assessed by flow cytometry, using Annexin V/propidium iodide (AV/PI) double staining, following the instructions of the Annexin V-FITC Apoptosis Detection Kit (Abcam, Cambridge, UK). Cells were cultured at 5 × 10^4 cells/well in 24-well plates and incubated overnight. Afterwards, cells were treated with increasing concentrations of BA-C4-TPP^+Br^− (1, 2.5, 5, or 10 µM for COLO205 and HCT-15 cells) for 24 h. Finally, cells were trypsinized, resuspended in annexin V binding buffer 1X, adding AV and PI, and incubated for 5 min at room temperature, protected from light. Control corresponds to cells incubated with DMSO 1%. Fluorescence of each probe was assessed by flow cytometry (FACSAria®III, BD Biosciences, Franklin Lakes, NJ, USA). Wavelengths used were 488Ex/530Em nm for AV-FITC and 488Ex/575Em nm for PI. Results are expressed as total apoptotic cells (percentage of AV+/PI− and AV+/PI+ cells), necrotic cells (percentage of AV-/PI+ cells), and live cells (percentage of AV-/PI− cells). Cyflogic software (non-commercial 6th version, CyFlo Ltd., Turku, Finland) was used for data processing.
In general terms: Flow cytometry measures light scatter and fluorescence of single cells or particles in a stream.

The next assay deals with HCT-15 cells. Described as above. Type of assay: cell-based, human. The conditions noted are these: 24 h. The method, then: as §3
The next assay relates to human cancer cell lines. The assay is described as follows: MTT cell viability, summary over the human cancer cell lines. The assay is classed as cell-based. To be noted: summary statement. The method, then:
as §1, §2

Where only a bound is given, the exact number is not on record here.

As to `C=C(C)[C@@H]1CC[C@]2(C(=O)OCCCC[P+](c3ccccc3)(c3ccccc3)c3ccccc3)CC[C@]3(C)[C@H](CC[C@@H]4[C@@]5(C)CC[C@H](O)C(C)(C)[C@@H]5CC[C@]43C)[C@@H]12` [BA-C4-TPP^+Br^−, 4-Triphenylphosphoniobutyl 3β-hydroxylup-20(29)-en-28-oate bromide], the IC50 in assay [1] was determined as 210 ± 10 nM; with AGS cells, 350 ± 20 nM; with J82 cells, 840 ± 20 nM; with HL-60 cells it was 220 ± 40 nM; in the assay on AU565 cells (AU565, 24 h), 1660 ± 120 nM; with AU565 cells (AU565, 48 h), 600 ± 50 nM. For the same molecule, the concentration for half-maximal inhibition (IC50) with human cancer cell lines (Homo sapiens, 48 and 72 h of treatment) was below 1000 nM. The “increase in potency compared to non-modified BA scaffold” value with AU565 cells (AU565 cells at 48 h) is recorded as around 15 fold. Also, the apoptosis induction is around 14% with COLO205 cells (COLO205, 1 μM); around 34% with COLO205 cells (COLO205, 2.5 μM); 12% with HCT-15 cells (HCT-15, 2.5 μM). Also, the necrotic cell death in the assay on COLO205 cells (COLO205, 5 μM) is 15%; with COLO205 cells (COLO205, initial concentration (1 μM)) it was 5%; in the assay with HCT-15 cells (HCT-15, 10 μM), around 30%. In the assay with HCT-15 cells (HCT-15, 2.5 μM), this molecule gave a necrosis induction of 7%. In addition, the increase in potency entry with human cancer cell lines (nine human cancer cell lines, relative to BA) is “over 100 fold”.

What is called IC50 is the concentration needed to halve the response being measured.

(Values after paper PMC12292992, “Betulinic Acid ω-Triphenylphosphonium Alkyl Esters: Antiproliferative Activities and In Silico Pharmacokinetic Profiles” (Biomedicines, 2025).)
